ChEMBL document CHEMBL3352200, “Thio-sugar motif of functional CARB-pharmacophore for antineoplastic activity. Part 2” (Bioorg Med Chem Lett, 2014)
Blank lines part the entries; values can stand above or below the molecule they belong to.

Experiments:
A549 [1] = assay: Induction of apoptosis in human A549 cells assessed as apoptotic cells at 69 uM after 4 hrs by FITC Annexin-V/propidium iodide staining-based flow cytometry (reference value: 15.60%); assay type: functional
MCF7 [2] = assay: Induction of apoptosis in human MCF7 cells assessed as apoptotic cells at 34 uM after 4 hrs by FITC Annexin-V/propidium iodide staining-based flow cytometry (reference value: 29.60%); assay type: functional
HeLa [3] = assay: Induction of apoptosis in human HeLa cells assessed as viable cells at 8.6 uM after 4 hrs by FITC Annexin-V/propidium iodide staining-based flow cytometry (reference value: 87.00%); assay type: functional; conditions: read-out: Activity
HeLa [4] = assay: Induction of apoptosis in human HeLa cells assessed as viable cells at 69 uM after 4 hrs by FITC Annexin-V/propidium iodide staining-based flow cytometry (reference value: 87.00%); assay type: functional; conditions: read-out: Activity
A549 [5] = assay: Induction of apoptosis in human A549 cells assessed as viable cells at 69 uM after 4 hrs by FITC Annexin-V/propidium iodide staining-based flow cytometry (reference value: 84.40%); assay type: functional; conditions: A549, 4 h, read-out: Activity
MCF7 [6] = assay: Induction of apoptosis in human MCF7 cells assessed as viable cells at 34 uM after 4 hrs by FITC Annexin-V/propidium iodide staining-based flow cytometry (reference value: 70.40%); assay type: functional; conditions: MCF7, 4 h, read-out: Activity
LoVo [7] = assay: Induction of apoptosis in human LoVo cells assessed as apoptotic cells at 137 uM after 4 hrs by FITC Annexin-V/propidium iodide staining-based flow cytometry (reference value: 20.50%); assay type: functional
MCF7 [8] = assay: Cytotoxicity against human MCF7 cells after 14 hrs by CCK-8 assay; assay type: functional, cell-based; conditions: MCF7, 14 h
HeLa [9] = assay: Induction of apoptosis in human HeLa cells assessed as apoptotic cells at 69 uM after 4 hrs by FITC Annexin-V/propidium iodide staining-based flow cytometry (reference value: 13.00%); assay type: functional
[10] = Cytotoxicity against human PNT2 cells at 8.6 to 2200 uM after 14 hrs by CCK-8 assay; assay type: cell-based; conditions: pnt2, 14 h
A549 [11] = assay: Induction of apoptosis in human A549 cells assessed as apoptotic cells at 8.6 uM after 4 hrs by FITC Annexin-V/propidium iodide staining-based flow cytometry (reference value: 15.60%); assay type: functional
MCF7 [12] = assay: Induction of apoptosis in human MCF7 cells assessed as apoptotic cells at 4.3 uM after 4 hrs by FITC Annexin-V/propidium iodide staining-based flow cytometry (reference value: 29.60%); assay type: functional
A549 [13] = assay: Induction of apoptosis in human A549 cells assessed as viable cells at 8.6 uM after 4 hrs by FITC Annexin-V/propidium iodide staining-based flow cytometry (reference value: 84.40%); assay type: functional; conditions: A549, 4 h, read-out: Activity
HeLa [14] = assay: Induction of apoptosis in human HeLa cells assessed as apoptotic cells at 8.6 uM after 4 hrs by FITC Annexin-V/propidium iodide staining-based flow cytometry (reference value: 13.00%); assay type: functional
HeLa [15] = assay: Cytotoxicity against human HeLa cells after 14 hrs by CCK-8 assay; assay type: functional, cell-based
LoVo [16] = assay: Cytotoxicity against human LoVo cells after 14 hrs by CCK-8 assay; assay type: functional, cell-based
MCF7 [17] = assay: Induction of apoptosis in human MCF7 cells assessed as viable cells at 4.3 uM after 4 hrs by FITC Annexin-V/propidium iodide staining-based flow cytometry (reference value: 70.40%); assay type: functional; conditions: MCF7, 4 h, read-out: Activity
LoVo [18] = assay: Induction of apoptosis in human LoVo cells assessed as viable cells at 137 uM after 4 hrs by FITC Annexin-V/propidium iodide staining-based flow cytometry (reference value: 79.50%); assay type: functional; conditions: read-out: Activity
LoVo [19] = assay: Induction of apoptosis in human LoVo cells assessed as apoptotic cells at 17 uM after 4 hrs by FITC Annexin-V/propidium iodide staining-based flow cytometry (reference value: 20.50%); assay type: functional
LoVo [20] = assay: Induction of apoptosis in human LoVo cells assessed as viable cells at 17 uM after 4 hrs by FITC Annexin-V/propidium iodide staining-based flow cytometry (reference value: 79.50%); assay type: functional; conditions: read-out: Activity
[21] = Lipophilicity, log P of the compound; assay type: physicochemical; conditions: octanol/water
A549 [22] = assay: Cytotoxicity against human A549 cells after 14 hrs by CCK-8 assay; assay type: functional, cell-based; conditions: A549, 14 h
HeLa [23] = assay: Induction of apoptosis in human HeLa cells assessed as apoptotic cells at 137 uM after 4 hrs by FITC Annexin-V/propidium iodide staining-based flow cytometry (reference value: 13.00%); assay type: functional
A549 [24] = assay: Induction of apoptosis in human A549 cells assessed as apoptotic cells at 34 uM after 4 hrs by FITC Annexin-V/propidium iodide staining-based flow cytometry (reference value: 15.60%); assay type: functional
LoVo [25] = assay: Induction of apoptosis in human LoVo cells assessed as apoptotic cells at 69 uM after 4 hrs by FITC Annexin-V/propidium iodide staining-based flow cytometry (reference value: 20.50%); assay type: functional
A549 [26] = assay: Induction of apoptosis in human A549 cells assessed as apoptotic cells at 275 uM after 4 hrs by FITC Annexin-V/propidium iodide staining-based flow cytometry (reference value: 15.60%); assay type: functional
HeLa [27] = assay: Induction of apoptosis in human HeLa cells assessed as apoptotic cells at 17 uM after 4 hrs by FITC Annexin-V/propidium iodide staining-based flow cytometry (reference value: 13.00%); assay type: functional
MCF7 [28] = assay: Induction of apoptosis in human MCF7 cells assessed as apoptotic cells at 17 uM after 4 hrs by FITC Annexin-V/propidium iodide staining-based flow cytometry (reference value: 29.60%); assay type: functional
A549 [29] = assay: Induction of apoptosis in human A549 cells assessed as viable cells at 275 uM after 4 hrs by FITC Annexin-V/propidium iodide staining-based flow cytometry (reference value: 84.40%); assay type: functional; conditions: A549, 4 h, read-out: Activity
A549 [30] = assay: Induction of apoptosis in human A549 cells assessed as viable cells at 34 uM after 4 hrs by FITC Annexin-V/propidium iodide staining-based flow cytometry (reference value: 84.40%); assay type: functional; conditions: A549, 4 h, read-out: Activity
LoVo [31] = assay: Induction of apoptosis in human LoVo cells assessed as apoptotic cells at 550 uM after 4 hrs by FITC Annexin-V/propidium iodide staining-based flow cytometry (reference value: 20.50%); assay type: functional
LoVo [32] = assay: Induction of apoptosis in human LoVo cells assessed as viable cells at 550 uM after 4 hrs by FITC Annexin-V/propidium iodide staining-based flow cytometry (reference value: 79.50%); assay type: functional; conditions: read-out: Activity
HeLa [33] = assay: Induction of apoptosis in human HeLa cells assessed as viable cells at 137 uM after 4 hrs by FITC Annexin-V/propidium iodide staining-based flow cytometry (reference value: 87.00%); assay type: functional; conditions: read-out: Activity
MCF7 [34] = assay: Induction of apoptosis in human MCF7 cells assessed as viable cells at 17 uM after 4 hrs by FITC Annexin-V/propidium iodide staining-based flow cytometry (reference value: 70.40%); assay type: functional; conditions: MCF7, 4 h, read-out: Activity
MCF7 [35] = assay: Induction of apoptosis in human MCF7 cells assessed as apoptotic cells at 137 uM after 4 hrs by FITC Annexin-V/propidium iodide staining-based flow cytometry (reference value: 29.60%); assay type: functional
MCF7 [36] = assay: Induction of apoptosis in human MCF7 cells assessed as viable cells at 137 uM after 4 hrs by FITC Annexin-V/propidium iodide staining-based flow cytometry (reference value: 70.40%); assay type: functional; conditions: MCF7, 4 h, read-out: Activity
HeLa [37] = assay: Induction of apoptosis in human HeLa cells assessed as viable cells at 17 uM after 4 hrs by FITC Annexin-V/propidium iodide staining-based flow cytometry (reference value: 87.00%); assay type: functional; conditions: read-out: Activity
LoVo [38] = assay: Induction of apoptosis in human LoVo cells assessed as viable cells at 69 uM after 4 hrs by FITC Annexin-V/propidium iodide staining-based flow cytometry (reference value: 79.50%); assay type: functional; conditions: read-out: Activity

- logP [21]: -1.13
Compound: CC(=O)OC[C@H]1O[C@@H](S[C@H]2CC(=O)[C@@H]3OC[C@H]2O3)[C@H](OC(C)=O)[C@@H](OC(C)=O)[C@@H]1OC(C)=O
- Activity (A549 [1]): 24.2%
- Activity (MCF7 [2]): 31.25%
- viability at 8.6 µM (HeLa [3]): 80%
- viability at 69 µM (HeLa [4]): 63.1%
- viability at 69 µM (A549 [5]): 75.8%
- viability at 34 µM (MCF7 [6]): 68.8%
- Activity (LoVo [7]): 30.3%
- IC50 (MCF7 [8]): 47.1 µM
- Activity (HeLa [9]): 36.9%
- Activity [10]: 10%
- Activity (A549 [11]): 23.6%
- Activity (MCF7 [12]): 36.9%
- viability at 8.6 µM (A549 [13]): 76.4%
- Activity (HeLa [14]): 20%
- IC50 (HeLa [15]): 91.4 µM
- IC50 (LoVo [16]): 166 µM
- viability at 4.3 µM (MCF7 [17]): 63.1%
- viability at 137 µM (LoVo [18]): 69.7%
- Activity (LoVo [19]): 27.55%
- viability at 17 µM (LoVo [20]): 72.5%
- IC50 (A549 [22]): 119 µM

- logP [21]: 1.28
Compound: O=C(O)c1ccccc1S[C@H]1CC(=O)[C@@H]2OC[C@H]1O2
- Activity (HeLa [23]): 25.8%
- Activity (A549 [24]): 27.4%
- Activity (LoVo [25]): 29.1%
- Activity (A549 [26]): 37.84%
- Activity (HeLa [27]): 24.5%
- IC50 (MCF7 [8]): 218 µM
- Activity [10]: 10%
- Activity (MCF7 [28]): 39.1%
- viability at 275 µM (A549 [29]): 62.2%
- viability at 34 µM (A549 [30]): 72.6%
- Activity (LoVo [31]): 62.2%
- IC50 (HeLa [15]): 434 µM
- viability at 550 µM (LoVo [32]): 37.8%
- IC50 (LoVo [16]): 641 µM
- viability at 137 µM (HeLa [33]): 74.2%
- viability at 17 µM (MCF7 [34]): 60.9%
- Activity (MCF7 [35]): 62.5%
- viability at 137 µM (MCF7 [36]): 37.5%
- viability at 17 µM (HeLa [37]): 75.5%
- viability at 69 µM (LoVo [38]): 70.9%
- IC50 (A549 [22]): 311 µM
